Laboratory results taken from a melting point compilation (Tetko et al.; mined from patent text by program, amines drawn as free bases though some values may be those of a salt).
Residues, ends and D or L forms follow the SMILES beside them. *: point of attachment. Boc = CC(C)(C)OC(=O)*; Bn = c1ccc(C*)cc1

Row | Structure (SMILES) | melting point [°C]
1 | CC(C)(C)c1cc(=O)cc(C(C)(C)C)s1 | 97 to 98
2 | O=c1oc(-c2ccc(Cl)c(Cl)c2)cc(O)c1SCc1ccccc1 | 185 to 186
3 | O=C(O)c1ccc(CNC(=O)C2Cc3ccccc3N2S(=O)(=O)c2ccc(-c3cccc(C(F)(F)F)c3)cc2)cc1 (configuration not stated) | 120
4 | O=[N+]([O-])c1c(F)cc(Br)c(OCCCl)c1Br | 56
5 | CC1(C)CON(Cc2ccc(N)cc2Cl)C1=O | 106 to 108
6 | CS(=O)(=O)Nc1nc(CN2CCC(c3c[nH]c4ccccc34)CC2)cs1 | 215 to 217
7 | CCc1ccc2c(O)c(CO)cnc2c1 | 180 to 182
8 | O=C(Nc1ccc(F)cc1)O[C@@H]1CN=C(c2ccccc2)O[C@H]1c1ccccc1 (racemic) | 158
9 | BrCCCCCCCOc1ccc2c(c1)OCO2 | 45 to 47
10 | CN(C)CCc1nc2cccnc2[nH]1 | 109 to 112
11 | CSc1nc(Cl)c(Cl)nc1Cl | 45 to 47
12 | COc1cc(OC)cc(C2CCCCC2=O)c1 (configuration not stated) | 61 to 62
13 | O=C(Nc1cccnn1)N1CCN(c2nc(-c3cccc(F)c3F)cs2)CC1 | 215 to 216
14 | CN(Cc1ccccc1)c1ccccc1C(=O)O | 86 to 88
15 | CC(=O)NCc1ccc2c(c1)N(C1CCN(CCCCc3ccc(F)cc3)CC1)CC2 | 119 to 121
16 | CCCCc1nc2ccnc(Cl)c2n1Cc1ccc(-c2ccccc2C#N)cc1 | 134
17 | CCOC(=O)c1cc(=O)c2cc(N3CCOCC3)c(=O)ccc2n1C | 170 to 172
18 | O=C(O)COc1cccc2c(CC(O)CCC(c3ccccc3)c3ccccc3)coc12 (configuration not stated) | 155 to 157
19 | O=CC(=Cc1ccccc1OCc1ccc(Cl)cc1)C(C=O)=Cc1ccccc1OCc1ccc(Cl)cc1 | 186 to 187

Row | Structure (SMILES) | melting point [°C]
20 | Cc1noc(NS(=O)(=O)c2ccccc2-c2ccc(-c3ncco3)cc2Cn2nccn2)c1C | 162 to 168
21 | CC(C)(C)OC(=O)C[C@@H]1C[C@@H](COc2ccc(-c3ccc(C(=N)NC(=O)OCc4ccccc4)cc3)cc2)NC1=O | 136 to 140
22 | O=C(Cc1cccc2ccccc12)N[C@H](Cc1ccc(C(F)(F)F)cc1)[C@@H](O)c1ccc(F)cc1 (racemic) | 186 to 187
23 | Cc1cc(Br)cc(C(=O)c2[nH]c(=O)[nH]c(=O)c2C(C)C)c1 | 266 to 267
24 | COCCc1nc2c(N)nc3ccccc3c2n1CCCCNC(=O)c1ccc2ccccc2n1 | 78.1 to 79.9
25 | CCOC(=O)c1cccc2c1N=C(c1ccccc1Cl)CC2=O | 152 to 153
26 | CCN1CCC(C(=O)NO)(S(=O)(=O)c2ccc(Oc3ccc(Cl)cc3)cc2)CC1 | 158
27 | COc1ccc(CN2C(=O)c3c(-c4ccccc4Cl)cc4c(c3C2=O)c2cc(OC)ccc2n4CCC(O)CO)c(OC)c1 (configuration not stated) | 126 to 131
28 | CC(=O)N[C@@H](CSC(c1ccccc1)(c1ccccc1)c1ccccc1)C(=O)NCCSC(=O)C(C)(C)C | 212 to 213
29 | COc1ccc(-c2ccccc2NC(N)=S)cc1 | 158 to 159
30 | O=C(c1ccc(O)cc1)c1c(-c2ccccc2)sc2ccccc12 | 163 to 165
31 | N#Cc1cnc2sc(I)cc2c1Cl | 181 to 182
32 | O=C(O)C(=O)N1CCC(=Cc2ccccc2)CC1 | 125
33 | Brc1ccc2nc(-c3coc4ccccc34)cn2c1 | 151 to 153
34 | COC(=O)c1cccc(NC(=O)c2ccc(OC)c(Nc3cccc(C(F)(F)F)c3)c2)c1 | 128 to 129
35 | COC(=O)C(CC(C)C)NC(=O)C(C)NC(=O)C(Cc1ccc(OCc2ccccc2)cc1)NC(=O)C(COCc1ccccc1)NC(=O)OC(C)(C)C (configuration not stated) (Boc-S(Bn)Y(Bn)AL-OMe; configuration not given here) | 67 to 71
36 | CC1(C)Oc2ccsc2C(N2CCCC2)C1O (configuration not stated) | 85 to 89
37 | Cc1c(NC(=O)c2ccnc(NCc3ccc(=O)[nH]c3)c2)cccc1C(F)(F)F | 196 to 201
